Test results reported in patent US20030187261A1, “Purine derivatives, process for their preparation and use thereof” (priority 2000, published 2003).
Entries after “also recorded” stand apart in the source; their conditions may differ. Read-outs that look alike come from different tables or passages of the source.

Experiments:
[1] = test system: adult bone marrow CD34+CD38- cells; test: pre-CFU assay; type: cell-based, human; settings: 14 day liquid culture, total clonogenic output after secondary methylcellulose culture
Description: […]. Cells with low-to-medium forward and low side scatter, highly positive green (CD34) fluorescence, and an orange (CD38) fluorescence signal lower than the mean fluorescence of cells labeled with an irrelevant isotype-matched control antibody+2 standard deviations were retained as CD34^+CD38^− cells and used in pre-CFU assays.
Pre-CFU assays were initiated by performing liquid cultures of CD34^+CD38^− cells in duplicate in 96-well flat-bottomed plates in IMDM/10% FCS, 1% bovine serum albumin (BSA), 100 U/ml IL-1, 200 U/ml IL-6, 30 U/ml IL-3 and 100 ng/ml stem cell factor (SCF). Pre-CFU cultures were initiated with 500 CD34^+CD38^− cells/well (200 μl). After 14 days of culture at 37° C. in 7.5% O2 and 5% CO2 in a fully humidified incubator, the number of cells in each well was counted. Subsequently, the cells were harvested, washed three times in IMDM/10% FCS, and plated in duplicate at 500 cells/well (1000 μl) in secondary methylcellulose CFU cultures as described for CFU assays.
Pre-CFU were cultured starting from adult bone marrow CD34^+CD38^− cells, that had been isolated using the FCM cell sorter. Novel compounds were added at different concentrations to the primary 14 day liquid culture. IC50 was calculated from dose-response curves from total clonogenic output after secondary methylcellulose culture (Table 5).

[2] = test system: PHA-stimulated lymphocytes (PBMC); test: cell number of PHA-stimulated lymphocytes (PBMC), flow cytometry; type: cell-based, human; settings: 96 hours, in the presence of IL-2
[3] = test system: myeloid leukemia KG1 cell line; test: cell growth of KG1 cell line, flow cytometric cell count; settings: for IC50: read-out: KGI IC50
Description: Cell lines: Human leukemic cell lines were obtained from the American Type Culture Collection (ATCC, Rockville, Md., USA).
Absolute cell number was determined by addition of a known concentration of Fluoresbrite microspheres (FITC) (Polysciences, Inc.). The absolute number of cells per well was calculated as: {(total number of beads added per well)/(number of beads measured)}×(number of measured cells in the gate of interest). All analyses were performed with a FACScan (BD), using CELLQuest software (Becton Dickinson).
The response of the myeloid leukemia KG1 and T-lymphocyte leukemia Molt3 cell lines to the cytostatic effect of the novel compounds was determined using the above-mentioned standardized bead suspension that was used to determine the absolute cell number by flow cytometric (FCM) measurement. Cells were grown in the presence of increasing concentrations of the compounds of the invention.
To determine reversibility of the effects of the new compounds, cells were plated at 10,000 per well and exposed to 0-50 μM of the composed, either continuously for 7 days (control) or only for 6 hours. In the latter case, cells were washed after 6 hours in phosphate-buffered-saline (PBS) (Life Technologies) and reseeded into drug-free medium for 7 days.

CDC2 = biological target: T1, CDC2 (Homo sapiens, UniProt P06493); test: p34cdc2 (CDC2) kinase inhibition assay, histone H1 substrate; type: biochemical; settings: Table 5, CDC2 activity in cell free system
T1 construct: made in house; host or cells: Sf9 insect cells, baculovirus co-infection
T1 sequence (P06493 whole entry, species assumed): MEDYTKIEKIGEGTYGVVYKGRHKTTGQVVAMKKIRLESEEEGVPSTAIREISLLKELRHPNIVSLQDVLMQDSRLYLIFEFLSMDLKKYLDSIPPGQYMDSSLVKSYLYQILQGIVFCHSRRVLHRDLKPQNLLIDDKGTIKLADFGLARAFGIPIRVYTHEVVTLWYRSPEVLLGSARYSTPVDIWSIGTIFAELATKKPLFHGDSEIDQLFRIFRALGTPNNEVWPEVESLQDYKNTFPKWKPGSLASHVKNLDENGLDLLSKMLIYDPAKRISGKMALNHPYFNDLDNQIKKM
T1 sequence (P14635 whole entry partner, species assumed): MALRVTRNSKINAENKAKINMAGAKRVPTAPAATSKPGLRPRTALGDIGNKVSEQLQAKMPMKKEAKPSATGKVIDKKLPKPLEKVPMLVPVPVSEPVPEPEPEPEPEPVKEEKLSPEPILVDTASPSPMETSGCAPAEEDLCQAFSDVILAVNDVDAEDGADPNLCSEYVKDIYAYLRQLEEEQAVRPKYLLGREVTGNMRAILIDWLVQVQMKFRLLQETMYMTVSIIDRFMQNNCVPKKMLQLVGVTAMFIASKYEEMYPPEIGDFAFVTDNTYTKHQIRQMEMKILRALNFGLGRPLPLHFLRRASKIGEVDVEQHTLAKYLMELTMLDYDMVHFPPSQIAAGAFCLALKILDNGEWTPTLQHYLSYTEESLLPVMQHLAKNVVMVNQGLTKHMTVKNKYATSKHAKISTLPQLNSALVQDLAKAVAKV
Description: Cyclin-dependent kinases (p34^cdc2, p33^cdk2, p33^cdk4 and cyclins (cyclin B, E and DI) are produced in Sf9 insect cells coinfected with appropriate baculoviral constructs. The cells are harvested 68-72 hrs post infection in lysis buffer for 30 min on ice and the soluble fraction is recovered by centrifugation at 14.000 g for 10 min. The protein extract is stored at −80° C.
To carry out experiments on kinetics under linear conditions, the final point test system for kinase activity measurement is used. The kinase is added to the reaction mixture in such a way that linear activity is obtained with respect to the concentration of enzyme and with respect to time.
Inhibition of p33^cdk4 kinase is determined with Rb-GST (0.2 mg/ml) as the substrate. Kinase activity is determined at 30° C. in kinase buffer.
Tested compounds are usually dissolved to 100 mM solutions in DMSO, the final concentration of DMSO in reaction mixture never exceeds 1%. The controls contain suitable dilutions of DMSO. After 10 min, the addition of 3×SDS sample buffer stops the incubations. […] The measurement of kinase activity is done using digital image analysis. The kinase activity is expressed as a percentage of maximum activity, the apparent inhibition constants are determined by graphic analysis. Kinase buffer: 50 mM Hepes pH 7.4, 10 mM MgCl21 5 mM EGTA, 10 mM 2-glycerolphosphate,

[4] = test system: T-lymphoblastic leukemia cell line CEM; test: MTT cytotoxicity assay, CEM; type: cell-based, human; settings: Homo sapiens, 72 hours (TCS50 in the method)
Outline: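 Cells pre-incubated 24 h, then exposed to six 4-fold dilutions (top well concentration typically 266.7 μM) in duplicate for 72 h at 37 °C, 5% CO2. MTT read-out, SDS-solubilized formazan measured at 540 nm. TCS50, the concentration lethal to 50% of tumour cells, derived from dose-response curves.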

Molecule | IC50 [1] [µM] | IC50 [2] [µM] | cell number after 6 hours of exposure, wash and 7 days in drug-free medium ([3]; KG1, compared to control without novel compounds) | IC50 ([3]; 96 hours of culture) [µM] | IC50 (CDC2) [µM] | IC50 ([1]; Homo sapiens, 336 h) [µM] | CC50 ([2]; Homo sapiens, Lymphocyte, read-out: Lymphocytes IC50) [µM] | IC50 [4] [µM] | effectiveness on KG1 compared with normal PBMC ([3]; FIG. 2) | IC50 ([3]; Homo sapiens, KG-1, 96 h) [µM]
2-(3-aminoethylamino)-6-(3,3-dihydroxybenzyl)amino-9-isopropylpurine [P28] | 3.5 | 9 ± 2.2 | (some) recovery of cell number | 16 ± 1.3 | 1.5 | – | – | – | – | –
CCCCCCNc1nc(NC(CO)c2ccccc2)c2ncn(C(C)C)c2n1 (centres unmarked) [P23, 2-(hexylamino)-6-(1-phenyl-2-hydroxyethylamino)-9-isopropylpurine] | – | – | – | – | 60 | > 25 | 15 ± 2 | 34 | significantly more effective on KG1 than on normal PBMC; also recorded: significantly more effective on KG1 than on normal-PBMC | 8 ± 0.6
